Laboratory results as given in patent US20240074473A1, “METHOD FOR INDUCING HYPERTROPHIC MUSCLE FIBERS FOR INDUSTRIAL MEAT PRODUCTION” (Yeda Research and Development Co. Ltd., priority 2021, published 2024).
Where two headings read alike, the source gives them in different places.

Assays:
[1] = tested on: primary chicken myoblasts; assay: Fusion index of primary chicken myoblasts (MyHC immunostaining); assay type: cell-based; conditions: primary chicken myoblasts; for Fusion index in combination with ERK inhibitor vs ERK inhibitor alone: proliferation media; for Fusion: 48 hours post treatment
Method: Chicken primary derived myoblasts were used as a model to evaluate the efficiency of SCH772984 as the ERKi, compared to conventional differentiation medium (DM) for the purpose of producing muscle (meat) in tissue culture conditions. Chicken myoblasts were isolated from chicken embryos and expanded in proliferation medium. When sufficient cell numbers were acquired, cells were seeded on tissue culture plates and allowed to adhere for 24 hours. Then medium was changed to either PM supplemented with ERKi or DM. At 24-hours post treatment, the cells that received ERKi were replenished with fresh PM (without the addition of more ERKi), and DM treated cells were replenished with fresh DM. Media was replaced daily over a period of 72 hours.
Evaluation of muscle fiber formation was achieved by fixing the cells and staining for expression of Myosin Heavy Chain (FIG. 9A). […] Yet, treatment with conventional DM only began to form fibers beginning at 72-hours post treatment. A fusion index was quantified at 72 hours post treatment (FIG. 9B), in which the percentage of total nuclei present in a myotube (MyHC positive cell with 2 or more nuclei).
Primary chicken myoblast isolation and treatment: chicken myoblasts were isolated from broiler chicken embryos at day 18 from breast and leg muscles by using Trypsin B. Following tissue dissociation, the cell suspension was grown for 3-4 days on 10% Matrigel coated plates. At the first passage, the cells were lifted and pre-plated twice for 30 minutes to enrich for myoblasts and reduce the number of fibroblasts. Then cells were seeded at 8,000/well of optical-96 well plates in proliferation medium. 24 hours after plating, media was aspirated and replaced with the indicated treatment conditions in proliferation media or differentiation media (as indicated). After 24 hours with treatment, the media was aspirated and all wells were replenished with fresh proliferation media or differentiation media without any treatment. This was repeated daily. Cells were fixed at 48 hours after treatment. Compounds were purchased from Cayman Chemicals.
Immunofluorescent staining: Cells were fixed with ice cold 4% PFA in PBS for 10 minutes, permeabilized with 0.5% Triton X-100 in PBS for 6 minutes, and blocked in PBS with 0.025% tween, 10% normal horse serum and 10% normal goat serum for 1 hour at room temperature. Primary antibody incubation was done in blocking buffer overnight at 4 degrees, with the following antibodies: Myosin Heavy Chain (MyHC, MF20, DSHB hybridoma supernatant 1:10, alpha-actinin (SIGMA A7811). Cells were washed 3 times in PBS with 0.025% tween and then incubated with appropriate secondary antibodies in PBS 1 hour. Nuclei were labeled with DAPI (SIGMA D9542, 5 ug/ml). All fusion indexes and imaging analysis were performed on at least 1000 per technical repeat.

[2] = Risk categorization of cell culture media ingredients
Text: Category 1: These cell culture media components are food ingredients/additives that are GRAS or permitted by federal regulation without limitation on use. Exemplary compounds in this category include innocuous ingredients such as sugars, pH buffers, water soluble vitamins, and common antioxidants such as tocopherols.
Category 2: These cell culture media components are common dietary nutrients and are anticipated to have GRAS status for food use or be permitted by regulation for addition to food. Examples of such compounds include most of the inorganic salts and macronutrients that are present within the cell culture media. […] Majority of nutrients present within the poultry cell-based meat may be readily measured using common validated methods for food composition testing. Batch analyses of multiple lots of the finished product may be obtained to validate the above assumptions. In some instances, consideration of established safe levels (e.g., ADI, UL) derived from a relevant authoritative body (e.g., U.S. FDA, EFSA, JECFA, FSANZ, U.S. EPA) may be leveraged to support safety. If comparisons of anticipated dietary intakes relative to an authoritative reference intake value is used, consideration of additive intakes from all dietary sources may be considered. In the absence of an authoritative reference intake value, published NOAELs from animal toxicology studies may be used to evaluate safety using standard scientific procedures for food safety evaluation. A margin of exposure (MoE) of 100-fold or greater between the NOAEL and estimated dietary intakes from food exposures is typically considered adequate to support safety. in situations where the MoE is <100-fold, additional measures for further reduction of the media component may be necessary, or further characterization of intraspecies/interspecies differences in metabolism may be necessary. These situations also require careful consideration of the regulatory status on a case-by basis (e.g., premarket approval as a food additive or GRAS evaluation required).
For example, situations where the compound is not detectable in finished product or is present at equivalent levels in comparator foods, compounds that are thermo-labile and will be digested during cooking, and/or compounds that are expected to be digested to innocuous compounds following ingestion. Examples of compounds meeting the aforementioned conditions would include recombinant growth factors and serum components. For Category 3 substances a final consideration in the safety assessment process may involve hazard characterization of the potential for a substance to produce toxic biological effects outside of the endpoints measured in a sub-chronic rat toxicity study. Substances with biological activity may require additional hazard characterization related to reproductive and developmental toxicity, or immunotoxicity. Considerations for allergenicity, biological effects in humans (e.g., effects on blood pressure), and synergistic effects with other media components also may be evaluated. […] Examples of category 3 components include recombinant proteins and animal serum.

[3] = Maximum estimated dietary exposure to media ingredients per 100 g serving; conditions: assumption of complete transfer of media components to the finished product on a wt/wt basis
[4] = SCH772984 1 uM plus 9-cis RA 200 nM, AM80 200 nM, AM580 100 nM, CH55 200 nM, TTNPB 200 nM, Fenretinide 200 nM, 48 hours
[5] = SCH772984 1 uM plus Caffeine 2 mM or Suramin 10 μM, 48 hours
[6] = cell culture media ingredient used during meat production

CC1=C(/C=C/C(C)=C\C=C\C(C)=C\C(=O)O)C(C)(C)CCC1 [9-cis retinoic acid]
Fusion index in combination with ERK inhibitor vs ERK inhibitor alone [1, 4]: significantly increased the fusion index

CC1(C)CCC(C)(C)c2cc(NC(=O)c3ccc(C(=O)O)cc3)ccc21 [AM80]
Fusion index in combination with ERK inhibitor vs ERK inhibitor alone [1, 4]: significantly increased the fusion index

CC1(C)CCC(C)(C)c2cc(C(=O)Nc3ccc(C(=O)O)cc3)ccc21 [AM580]
Fusion index in combination with ERK inhibitor vs ERK inhibitor alone [1, 4]: significantly increased the fusion index

O=C1O[C@H]([C@@H](O)CO)C(O)=C1O [ASCORBIC ACID]
Risk Assessment Category [2]: 1
Maximum Estimated Exposure per 100 g serving [3]: 2000 mg

CC(C)(C)c1cc(C(=O)/C=C/c2ccc(C(=O)O)cc2)cc(C(C)(C)C)c1 [CH55]
Fusion index in combination with ERK inhibitor vs ERK inhibitor alone [1, 4]: significantly increased the fusion index

C[N+](C)(C)CCO.[Cl-] [CHOLINE CHLORIDE]
Risk Assessment Category [2]: 1
Maximum Estimated Exposure per 100 g serving [3]: 52 mg

Cn1c(=O)c2c(ncn2C)n(C)c1=O [Caffeine]
Fusion index in combination with ERK inhibitor vs ERK inhibitor alone [1, 5]: significantly increased the fusion index

O=C(O)CCCC[C@@H]1SC[C@@H]2NC(=O)N[C@@H]21 [D-BIOTIN]
Risk Assessment Category [2]: 1
Maximum Estimated Exposure per 100 g serving [3]: 4 mg

O=C[C@H](O)[C@@H](O)[C@H](O)[C@H](O)CO [D-GLUCOSE]
Risk Assessment Category [2]: 1

Nc1nc2ncc(CNc3ccc(C(=O)N[C@@H](CCC(=O)O)C(=O)O)cc3)nc2c(=O)[nH]1 [FOLIC ACID]
Risk Assessment Category [2]: 1
Maximum Estimated Exposure per 100 g serving [3]: 60 mg

CC1=C(/C=C/C(C)=C/C=C/C(C)=C/C(=O)Nc2ccc(O)cc2)C(C)(C)CCC1 [Fenretinide]
Fusion index in combination with ERK inhibitor vs ERK inhibitor alone [1, 4]: significantly increased the fusion index

C[C@H](N)C(=O)O [L-ALANINE]
Risk Assessment Category [2]: 2

NC(=O)C[C@H](N)C(=O)O.O [L-ASPARAGINE-H20]
Risk Assessment Category [2]: 2

Cl.N[C@@H](CS)C(=O)O.O [L-CYSTEINE HCL H20]
Risk Assessment Category [2, 6]: 2

Cl.Cl.N[C@@H](CSSC[C@H](N)C(=O)O)C(=O)O [L-CYSTINE 2HCL]
Risk Assessment Category [2]: 2

N[C@@H](CCC(=O)N[C@@H](CS)C(=O)NCC(=O)O)C(=O)O [L-GLUTATHIONE]
Risk Assessment Category [2]: 2
Maximum Estimated Exposure per 100 g serving [3]: 36 mg

Cl.N[C@@H](Cc1cnc[nH]1)C(=O)O.O [L-HISTIDINE-HCL-H20]
Risk Assessment Category [2, 6]: 2

CC[C@H](C)[C@H](N)C(=O)O [L-ISOLEUCINE]
Risk Assessment Category [2]: 2

Cl.NCCCC[C@H](N)C(=O)O [L-LYSINE-HCL]
Risk Assessment Category [2, 6]: 2

CSCC[C@H](N)C(=O)O [L-METHIONINE]
Risk Assessment Category [2]: 2

N[C@@H](Cc1ccccc1)C(=O)O [L-PHENYLALANINE]
Risk Assessment Category [2, 6]: 2

N[C@@H](CO)C(=O)O [L-SERINE]
Risk Assessment Category [2]: 2

C[C@@H](O)[C@H](N)C(=O)O [L-THREONINE]
Risk Assessment Category [2]: 2

N[C@@H](Cc1c[nH]c2ccccc12)C(=O)O [L-TRYPTOPHAN]
Risk Assessment Category [2]: 2

N[C@@H](Cc1ccc([O-])cc1)C(=O)[O-].O.O.[Na+].[Na+] [L-TYROSINE-2NA-2H20]
Risk Assessment Category [2, 6]: 2

CC(C)[C@H](N)C(=O)O [L-VALINE]
Risk Assessment Category [2]: 2

O[C@H]1[C@H](O)[C@@H](O)[C@H](O)[C@@H](O)[C@H]1O [MYO-INOSITOL]
Risk Assessment Category [2]: 1
Maximum Estimated Exposure per 100 g serving [3]: 430 mg

Cc1ncc(CO)c(C=O)c1O.Cl [PYRIDOXAL-HCL]
Risk Assessment Category [2]: 1

Cc1ncc(CO)c(CO)c1O.Cl [PYRIDOXINE-HCL]
Risk Assessment Category [2, 6]: 1
Maximum Estimated Exposure per 100 g serving [3]: 25 mg

O.O.O.O.O.O.O.O.O.O=[Si]([O-])[O-].[Na+].[Na+] [SODIUM METASILICATE-9H2O]
Risk Assessment Category [2]: 1
Maximum Estimated Exposure per 100 g serving [3]: 1.6 mg

O.O=P([O-])(O)O.[Na+] [SODIUM PHOSPHATE MONOBASIC H20]
Risk Assessment Category [2, 6]: 1
Maximum Estimated Exposure per 100 g serving [3]: 1500 mg

Cc1ccc(C(=O)Nc2ccc(S(=O)(=O)O)c3cc(S(=O)(=O)O)cc(S(=O)(=O)O)c23)cc1NC(=O)c1cccc(NC(=O)Nc2cccc(C(=O)Nc3cc(C(=O)Nc4ccc(S(=O)(=O)O)c5cc(S(=O)(=O)O)cc(S(=O)(=O)O)c45)ccc3C)c2)c1 [Suramin]
Fusion index in combination with ERK inhibitor vs ERK inhibitor alone [1, 5]: significantly increased the fusion index

C/C(=C\c1ccc(C(=O)O)cc1)c1ccc2c(c1)C(C)(C)CCC2(C)C [TTNPB]
Fusion index in combination with ERK inhibitor vs ERK inhibitor alone [1, 4]: significantly increased the fusion index

N#CC(=C(/N)Sc1ccccc1N)/C(C#N)=C(\N)Sc1ccccc1N [U0126]
Fusion ([1]; Differentiation media, 1 uM): 29%
Fusion ([1]; Differentiation media, 10 uM): 47%
Fusion ([1]; Proliferation media, 1 uM): 16%
Fusion ([1]; Proliferation media, 10 uM): 7%

CNc1ccc2oc(C[C@H]3O[C@@]4(CC[C@H]3C)O[C@H]([C@H](C)C(=O)c3ccc[nH]3)[C@H](C)C[C@H]4C)nc2c1C(=O)O [calcimycin]
Fusion index ([1]; proliferation medium, ionophore 1 uM plus ERKi 1 uM, 48 hours): 94%

BOVINE SERUM ALBUMIN: animal component of cell culture media
Risk Assessment Category [2]: 3

FGF2 (FIBROBLAST GROWTH FACTOR-BASIC): growth factor of cell culture media
Risk Assessment Category [2]: 3

IGF-1 (INSULIN-LIKE GROWTH FACTOR 1): growth factor of cell culture media
Risk Assessment Category [2]: 3

PDGF-BB (PLATELET DERIVED GROWTH FACTOR-BB): growth factor of cell culture media
Risk Assessment Category [2]: 3
